Entries after “also recorded” stand apart in the source; their conditions may differ.

One assay has as its system fibroblasts. As to the kind of experiment: Fas-induced apoptosis, fibroblasts. The class given is cell-based, human. The following applies: data not shown. The procedure: Primary normal human lung fibroblasts (Clonetics, Cambrex Bioscience, Rockland, Me.), primary distal lung human epithelial cells (Clonetics) or A549 (American Type Culture Collection, Manassas, Va.) were seeded in a 96-well tissue culture plate (2×10^4 cells/well) overnight and serum-starved for 24 hours. Function blocking antibody to the human type 1 IGF receptor (A12), a generous gift from ImClone Systems (New York, N.Y.) (Burtrum D, et al., Cancer Res 63:8912-8921 (2003); Wu J D, et al., Clin Cancer Res 11:3065-3074 (2005)), was added to media at indicated concentration for 24 hours. In some experiments, soluble Fas ligand (Alexis Biochemicals, Lausen, Switzerland) or IGFBP-3 (R&D Systems) was added to cells. […] After 48 hours, apoptosis was measured. To prevent detached cells from being aspirated, plates were centrifuged at 200×g for 10 minutes, and apoptosis was measured using the Cell Death Detection ELISA-plus System (Roche Applied Science, Penzberg, Germany), which detects cytosolic histone-complexed DNA fragments. […] The data are reported as the mean absorbance of triplicate wells mean+SE or as apoptosis index, defined as the ratio of the mean absorbance of triplicate wells in the experimental condition OD405 nm/control (media alone) OD405 nm.

Assay [1] concerns primary mouse lung fibroblasts. Description: migration assay (FluoroBlok transwell). The class given is cell-based, C57BL6 mice. The following applies: IGF-1 100 ng/ml; A12 40 μg/ml preincubation. The procedure:
Mouse lung fibroblasts were plated FluoroBlok transwell filters overnight, then IGF-1 (100 ng/ml), serum free media (negative control), 10% serum (positive control) was added to lower chamber. Some cells were preincubated with the blocking antibody to IGF-1R (A12, 40 μg/ml) before the addition of IGF-1. Cells were allowed to migrate through membrane for 4 hours @ 37° C. Migrated cells were counted with Fluorescent microscope. Each experiments was done in triplicate and repeated at least three times. Average cell count ±SD are presented.
For migration assays, primary mouse lung fibroblasts (50,000 cells/well) were plated in serum-free medium overnight on Fluoroblok transwell filters (8 μm pores, HTS FluoroBlok™ 24-Multiwell Insert System, BD Bioscience, Bedford, Mass.) pre-coated with fibronectin (50 μg/ml). Fluoroblok microporous membranes are specifically designed to detect by fluorescence only cells below the surface membrane. IGF-1 (100 ng/ml), 10% FBS (positive control) or serum-free media (negative control) was added to lower chamber. In some experiments, cells were preincubated with the blocking antibody to IGF-1R (A12, 40 μg/ml), for 1 hour. After 4 hours of migration, filters were fixed with formaldehyde and stained with DAPI (4′6-Diamidine-2′-phenylindole dihydrochloride, Roche, Indianapolis, Ind.). Migrated cells were counted in three predesignated fields for each filter. All experiments were done in triplicate and repeated at least three times.

Assay [2] concerns primary mouse lung fibroblasts. As to the kind of experiment: apoptosis assay (Cell Death Detection ELISA-plus), mouse lung fibroblasts. The class given is cell-based, C57BL6 mice. As to conditions: serum-starved, 24 hours. The procedure: A. Quantification of TUNEL IHC by number of TUNEL positive cells/total # of cells. Average ±SD of two mice/condition and at least 500 cells analyzed per condition. […] Mouse lung fibroblasts were serum starved overnight and then incubated with indicated concentration of IGF-1R antibody, A12. Apoptosis was measured by Cell Death ELISA-plus (Roche Applied Science). All experiments were done in triplicate and repeated at least twice. Apoptosis index is defined as ratio of experimental condition OD405nm/control (media alone) OD405nm. The data was analyzed using one-way ANOVA with Tukey's HSD post hoc test, and statistical significance (*) was determined at p<0.05.
For apoptosis assays, primary mouse lung fibroblasts were plated in 96-well plates (20,000 cells/well) overnight and serum-starved for 24 hours. Functional blocking antibody to the type 1 IGF receptor (A12) was added to media at indicated concentration for 24 hours. At the end of the experiment, plates were centrifuged at 200×g for 10 minutes to prevent detached cells from being aspirated, and apoptosis was measured using the Cell Death Detection ELISA-plus System (Roche Applied Science, Penzberg, Germany), which detects cytosolic histone-complexed DNA fragments. All experiments were done in triplicate and repeated at least twice. Apoptosis index was defined as ratio of experimental condition OD405nm/control (media alone) OD405nm.
On the technique in general: An ELISA detects its analyte on a solid surface through an enzyme-linked reagent.

Assay [3] deals with lung cells (TUNEL positive). Description: TUNEL assay on lung sections after bleomycin. The class given is in vivo, mice. The protocol:
For TUNEL assay, tissue sections were deparaffinized using standard protocols and permeabilised with proteinase K (10 μg/ml in 10 mM Tris-HCl) for 30 mins at 37° C. Non-specific binding sites were blocked with 1 mg/ml BSA in 50 mM Tris-HCl for 10 mins at 37° C. TUNEL positive cells were detected with Fluorescein In Situ Cell Death Detection Kit (Roche). Nuclei were counterstained with DAPI. To quantitate apoptosis, at least 2 mice per timepoint were examined and a blinded observer counted number of TUNEL positive cells and DAPI positive cells in 4 independent fields/mouse. At least 500 cells were analyzed per condition.

Another assay has as its target insulin receptor (IR) (Homo sapiens, UniProt P06213). The following applies: cited from earlier work.
The test system of the next assay is IGF-1R. The following applies: murine and human tissues; cited from earlier work.

For the substance “A12: Function blocking antibody to the human type 1 IGF receptor, gift from ImClone Systems”, the “Fas-induced apoptosis of fibroblasts” value with fibroblasts was “did not alter Fas-induced apoptosis”. Besides, the “effect on IGF-1-induced migration” value in assay [1] is listed as “inhibited; also recorded: abrogated the increased migration”. Moreover, the “apoptosis of primary mouse lung fibroblasts” value in assay [2] is recorded as “dose-dependent increase in apoptosis; also recorded: Increased apoptosis”; in assay [2] (listed as IGF-1R antibody), “increased apoptosis”. Besides, the “TUNEL-positive (apoptotic) cells in lung” value in assay [3] (d14, vs vehicle) is listed as “increase in TUNEL-positive cells”; in assay [3] (day 28, vs vehicle), “fewer apoptotic cells”. Further, the “cross-reaction with insulin receptor” value with insulin receptor (IR) was “does not cross-react”. Besides, the IGF-1R signaling result with IGF-1R is recorded as “inhibits IGF-1R signaling”.

These data come from patent publication US8178091B2, “Compositions and methods for the treatment of respiratory disorders” (University of Washington, priority 2007, dated 2012).
